Results on twelve compounds are retold here after patent publication US4049665A, “Unsymmetrical disulfides as antimicrobial agents” (Colgate-Palmolive Company, priority 1975, dated 1977).

In one test the test system is C. albicans. Description: two-fold serial dilution test, minimum inhibitory concentration (Table I). It counts as cell-based, Candidia albicans. The following applies: Candida albicans, C. albicans (Yeast), 1% solution in 95% ethyl alcohol. An excerpt:
(§1) *Data indicates minimum inhibitory concentration in parts per million
(§2) tested by the two-fold serial dilution text method utilizing 1% solution
(§3) of the test material in 95% ethyl alcohol.

A further test deals with Ps. aeruginosa. The test is described as above. It counts as cell-based. Particulars: Pseudomonas aeruginosa, Ps. aeruginosa (Gram Negative), 1% solution in 95% ethyl alcohol.
Source text: as §1, §2, §3

For another test, the system named is Str. mitis. Described as above. It counts as cell-based. Particulars: Streptococcus mitis, Str. mitis (Gram Positive), 1% solution in 95% ethyl alcohol.
Source text: as §1, §2, §3

Another test deals with S. aureus. The test is described as above. The format is cell-based. The following applies: Staphylococcus aureus, read-out: minimum inhibitory concentration.
Source text: as §1, §2, §3

A further test concerns A. niger. The test is described as above. It counts as cell-based. The following applies: Aspergillus niger, A. niger (Mold), 1% solution in 95% ethyl alcohol.
Source text: as §1, §2, §3

The next test relates to E. coli. Described as above. The following applies: Escherichia coli, read-out: minimum inhibitory concentration. The format is cell-based.
Source text: as §1, §2, §3

The next test relates to T. mentagrophytes. The test is described as above. The format is cell-based. The following applies: Trichophyton mentagrophytes, T. mentagrophytes (Mold), 1% solution in 95% ethyl alcohol.
Source text: as §1, §2, §3

The test system of a further test is P. ovale. The test is described as above. The format is cell-based. Particulars: Pityrosporum ovale, P. ovale (Yeast), 1% solution in 95% ethyl alcohol.
Source text: as §1, §2, §3

The next test has as its system microorganisms. Description: antimicrobial properties of shampoo compositions. Particulars: substituted for 4-chlorphenyl 1-oxo-2-pyridyl disulfide in shampoo of Example VII.
The test system of the next test is soil and foliage fungi. Particulars: U.S. Pat. No. 2,922,790; soil and foliage fungicides; cited from earlier work.

Converted amounts (≈) assume the structure as drawn. Read-outs that look alike come from different tables or passages of the source.

As for `[O-][n+]1ccccc1SSc1cccc[n+]1[O-]`, the MIC against C. albicans came out at 31.2 µg/mL (≈ 124 µM); in the test on Ps. aeruginosa, 250 µg/mL (≈ 991 µM); against Str. mitis it was 31.2 µg/mL (≈ 124 µM); in the test with S. aureus it was 7.8 µg/mL (≈ 30.9 µM); in the test on A. niger, 62.5 µg/mL (≈ 248 µM); in the test on E. coli it was 62.5 µg/mL (≈ 248 µM).

`[O-][n+]1ccccc1SSc1ccccc1`: the MIC in the test with C. albicans is over 1000 µg/mL; in the test with T. mentagrophytes, 15.6 µg/mL (≈ 66.3 µM); against Ps. aeruginosa, 250 µg/mL (≈ 1060 µM); against Str. mitis, 15.6 µg/mL (≈ 66.3 µM); with S. aureus (S. aureus (Gram Positive), 1% solution in 95% ethyl alcohol, two-fold serial dilution) it was 3.9 µg/mL (≈ 16.6 µM); against A. niger, 15.6 µg/mL (≈ 66.3 µM). Moreover, the MIC is 31.2 µg/mL (≈ 133 µM) in the test on E. coli (E. coli (Gram Negative), 1% solution in 95% ethyl alcohol, two-fold serial dilution) and 0.1 µg/mL (≈ 0.425 µM) against P. ovale.

As for `[O-][n+]1ccccc1SSCc1ccc(Cl)cc1Cl`, the MIC with C. albicans is 7.8 µg/mL (≈ 24.5 µM); against T. mentagrophytes, 3.9 µg/mL (≈ 12.3 µM); in the test on Ps. aeruginosa, 125 µg/mL (≈ 393 µM); in the test on Str. mitis, 7.8 µg/mL (≈ 24.5 µM); with S. aureus, under 0.5 µg/mL; in the test on A. niger, 15.6 µg/mL (≈ 49 µM). For the same compound, in the test with E. coli, the MIC came to 31.2 µg/mL (≈ 98 µM).

Compound `[O-][n+]1ccccc1SSc1ccc(Cl)cc1` displayed an MIC in the test with P. ovale of 3.9 µg/mL (≈ 14.5 µM).

As to `[O-][n+]1ccccc1SSc1ccc(Cl)c(Cl)c1`, in the test on P. ovale, the MIC stood at 15.6 µg/mL (≈ 51.3 µM).

Compound `[O-][n+]1ccccc1SSCc1ccc(Cl)cc1` had an MIC in the test on P. ovale of 1.9 µg/mL (≈ 6.69 µM).

Consider `[O-][n+]1ccccc1SSCc1ccc(Cl)c(Cl)c1`, for which the MIC against P. ovale turned out to be 3.9 µg/mL (≈ 12.3 µM).

`CCCCCCCCCCCCSSc1cccc[n+]1[O-]` [dodecyl 1-oxo2-pyridyl disulfide, Dodecyl 1-oxo-2-pyridyl disulfide]: the “antimicrobial properties of the resultant shampoo” value (shortened to “antimicrobial properties”) in the test with microorganisms is recorded as “substantially similar antimicrobial properties”.

`CCCCCCSSc1cccc[n+]1[O-]` [hexyl 1-oxo-2-pyridyl disulfide, Hexyl 1-oxo-2-pyridyl disulfide]: the “antimicrobial properties” value with microorganisms is “substantially similar antimicrobial properties”.

Turning to `COc1ccc(SSc2cccc[n+]2[O-])cc1` [p-methoxyphenyl 1oxo-2-pyridyl disulfide, p-Methoxyphenyl 1-oxo-2-pyridyl disulfide], in the test with microorganisms, the “antimicrobial properties” value is “substantially similar antimicrobial properties”.

On to Decenyl 1-oxo-2-pyridyl disulfide, for which the “antimicrobial properties” value in the test with microorganisms is “substantially similar antimicrobial properties”.

Turning to “pyridine-1-oxide trichloromethyl disulfide”, in the test with soil and foliage fungi, the “pesticidal properties” value is “pesticidal properties desirable in soil and foliage fungicides”.
